# Reference: publication PMC6560451, “Occurrence and Function of the Na^+-Translocating NADH:Quinone Oxidoreductase in Prevotella spp” (Microorganisms, 2019)
# Target: T1, NqrB and NqrC subunits of P. bryantii B14 (Segatella baroniae, UniProt D8DWB9+D8DWC0)
# T1 sequence (D8DWC0 1-385): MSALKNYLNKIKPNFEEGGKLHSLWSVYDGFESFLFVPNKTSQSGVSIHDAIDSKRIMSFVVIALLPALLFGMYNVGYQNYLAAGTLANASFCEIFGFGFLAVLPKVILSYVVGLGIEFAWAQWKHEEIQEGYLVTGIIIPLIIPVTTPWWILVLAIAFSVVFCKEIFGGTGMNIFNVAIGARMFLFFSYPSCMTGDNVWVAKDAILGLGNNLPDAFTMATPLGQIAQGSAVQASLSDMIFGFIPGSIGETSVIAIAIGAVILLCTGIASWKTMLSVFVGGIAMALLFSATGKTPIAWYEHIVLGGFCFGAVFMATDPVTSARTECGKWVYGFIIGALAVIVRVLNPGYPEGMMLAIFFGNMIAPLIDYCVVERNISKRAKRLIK
# T1 sequence (D8DWB9 1-210): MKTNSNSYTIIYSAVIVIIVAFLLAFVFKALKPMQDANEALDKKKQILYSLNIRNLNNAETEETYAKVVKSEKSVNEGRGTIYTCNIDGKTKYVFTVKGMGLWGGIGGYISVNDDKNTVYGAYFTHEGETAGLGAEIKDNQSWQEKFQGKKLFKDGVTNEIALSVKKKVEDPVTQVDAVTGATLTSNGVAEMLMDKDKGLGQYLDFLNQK
# Assay: in-gel fluorescence after SDS-PAGE (excitation […] nm)
# Format: biochemical
structure (smiles),measurement,value
Cc1cc2nc3c(=O)[nH]c(=O)nc-3n(C[C@H](O)[C@H](O)[C@H](O)COP(=O)(O)O)c2cc1C [flavin mononucleotide],in-gel fluorescence after SDS-PAGE (excitation 460 nm),verified by in-gel fluorescence detection of covalently bound FMN chromophores
